Measured values reported in the kinase profiling compilation of Christmann-Franck et al. (2016).

Key:
Experiment in all cases: radiometric filter-binding kinase assay
MAPK8 (human) = MAPK8 (human) (UniProt P45983)
PAK7 (human) = PAK7 (human) (UniProt Q9P286)
PRKAA1 or PRKAA2 (rat) = details: accession and sequence are those of the human protein
PRKCA (human) = PRKCA (human) (UniProt P17252)
NEK2 (human) = NEK2 (human) (UniProt P51955)
DYRK2 (human) = DYRK2 (human) (UniProt Q92630)
[1] = tested on: SGK1 (human), O00141 [S422D]
PRKACA (human) = PRKACA (human) (UniProt P17612)
BRSK2 (human) = BRSK2 (human) (UniProt Q8IWQ3)
MST4 (human) = MST4 (human) (UniProt Q9P289)
IKBKE (human) = IKBKE (human) (UniProt Q14164)
CaMK1 (human) = CaMK1 (human) (UniProt Q14012)
HIPK2 (human) = HIPK2 (human) (UniProt Q9H2X6)
RPS6KA1 KD1 KD2 (human) = RPS6KA1 KD1 KD2 (human) (UniProt Q15418)
[2] = tested on: AKT1 (human), P31749 [S473D]
MKNK1 (human) = MKNK1 (human) (UniProt Q9BUB5)
CHEK2 (human) = CHEK2 (human) (UniProt O96017)
MAPK3 (human) = MAPK3 (human) (UniProt P27361)
EPHB3 (human) = EPHB3 (human) (UniProt P54753)
PLK1 (human) = PLK1 (human) (UniProt P53350)
PAK4 (human) = PAK4 (human) (UniProt O96013)
MAPK12 (human) = MAPK12 (human) (UniProt P53778)
SYK (human) = SYK (human) (UniProt P43405)
DYRK1A (human) = DYRK1A (human) (UniProt Q13627)
MAPK13 (human) = MAPK13 (human) (UniProt O15264)
MAPK1 (human) = MAPK1 (human) (UniProt P28482)

BRSK2 (human), sequence (Q8IWQ3 whole entry, looked up): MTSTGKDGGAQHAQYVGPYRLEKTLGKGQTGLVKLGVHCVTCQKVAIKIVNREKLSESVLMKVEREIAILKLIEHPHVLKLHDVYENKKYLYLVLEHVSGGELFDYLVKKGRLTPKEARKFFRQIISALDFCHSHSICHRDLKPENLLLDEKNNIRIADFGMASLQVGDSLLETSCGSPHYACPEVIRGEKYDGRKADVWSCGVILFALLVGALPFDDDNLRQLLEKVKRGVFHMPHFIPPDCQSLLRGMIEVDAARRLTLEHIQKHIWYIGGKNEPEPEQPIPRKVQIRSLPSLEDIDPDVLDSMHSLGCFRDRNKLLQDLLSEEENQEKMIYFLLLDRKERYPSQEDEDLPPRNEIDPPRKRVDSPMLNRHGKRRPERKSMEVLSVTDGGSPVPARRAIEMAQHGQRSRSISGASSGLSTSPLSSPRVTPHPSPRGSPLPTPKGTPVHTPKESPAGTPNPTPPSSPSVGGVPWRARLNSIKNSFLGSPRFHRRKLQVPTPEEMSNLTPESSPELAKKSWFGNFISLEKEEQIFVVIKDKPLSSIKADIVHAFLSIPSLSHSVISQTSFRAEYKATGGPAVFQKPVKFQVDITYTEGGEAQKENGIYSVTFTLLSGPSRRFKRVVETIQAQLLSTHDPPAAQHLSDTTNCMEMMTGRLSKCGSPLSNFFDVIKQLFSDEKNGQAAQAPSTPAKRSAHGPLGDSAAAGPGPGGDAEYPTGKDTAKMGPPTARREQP
AKT1 (human), P31749 [S473D], sequence (P31749 whole entry S473D, looked up): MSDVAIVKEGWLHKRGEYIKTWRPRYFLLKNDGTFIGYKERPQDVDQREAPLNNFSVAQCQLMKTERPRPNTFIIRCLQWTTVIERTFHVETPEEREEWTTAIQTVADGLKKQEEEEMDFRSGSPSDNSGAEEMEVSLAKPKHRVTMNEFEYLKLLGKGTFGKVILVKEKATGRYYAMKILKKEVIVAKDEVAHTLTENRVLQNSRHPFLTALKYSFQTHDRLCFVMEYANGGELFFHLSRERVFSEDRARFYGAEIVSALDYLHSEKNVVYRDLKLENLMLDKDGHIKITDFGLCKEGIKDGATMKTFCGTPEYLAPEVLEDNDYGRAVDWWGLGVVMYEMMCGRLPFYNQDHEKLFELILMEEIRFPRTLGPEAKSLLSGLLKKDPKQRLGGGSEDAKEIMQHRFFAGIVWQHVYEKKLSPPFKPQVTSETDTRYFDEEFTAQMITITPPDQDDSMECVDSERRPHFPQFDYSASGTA
HIPK2 (human), sequence (Q9H2X6 whole entry, looked up): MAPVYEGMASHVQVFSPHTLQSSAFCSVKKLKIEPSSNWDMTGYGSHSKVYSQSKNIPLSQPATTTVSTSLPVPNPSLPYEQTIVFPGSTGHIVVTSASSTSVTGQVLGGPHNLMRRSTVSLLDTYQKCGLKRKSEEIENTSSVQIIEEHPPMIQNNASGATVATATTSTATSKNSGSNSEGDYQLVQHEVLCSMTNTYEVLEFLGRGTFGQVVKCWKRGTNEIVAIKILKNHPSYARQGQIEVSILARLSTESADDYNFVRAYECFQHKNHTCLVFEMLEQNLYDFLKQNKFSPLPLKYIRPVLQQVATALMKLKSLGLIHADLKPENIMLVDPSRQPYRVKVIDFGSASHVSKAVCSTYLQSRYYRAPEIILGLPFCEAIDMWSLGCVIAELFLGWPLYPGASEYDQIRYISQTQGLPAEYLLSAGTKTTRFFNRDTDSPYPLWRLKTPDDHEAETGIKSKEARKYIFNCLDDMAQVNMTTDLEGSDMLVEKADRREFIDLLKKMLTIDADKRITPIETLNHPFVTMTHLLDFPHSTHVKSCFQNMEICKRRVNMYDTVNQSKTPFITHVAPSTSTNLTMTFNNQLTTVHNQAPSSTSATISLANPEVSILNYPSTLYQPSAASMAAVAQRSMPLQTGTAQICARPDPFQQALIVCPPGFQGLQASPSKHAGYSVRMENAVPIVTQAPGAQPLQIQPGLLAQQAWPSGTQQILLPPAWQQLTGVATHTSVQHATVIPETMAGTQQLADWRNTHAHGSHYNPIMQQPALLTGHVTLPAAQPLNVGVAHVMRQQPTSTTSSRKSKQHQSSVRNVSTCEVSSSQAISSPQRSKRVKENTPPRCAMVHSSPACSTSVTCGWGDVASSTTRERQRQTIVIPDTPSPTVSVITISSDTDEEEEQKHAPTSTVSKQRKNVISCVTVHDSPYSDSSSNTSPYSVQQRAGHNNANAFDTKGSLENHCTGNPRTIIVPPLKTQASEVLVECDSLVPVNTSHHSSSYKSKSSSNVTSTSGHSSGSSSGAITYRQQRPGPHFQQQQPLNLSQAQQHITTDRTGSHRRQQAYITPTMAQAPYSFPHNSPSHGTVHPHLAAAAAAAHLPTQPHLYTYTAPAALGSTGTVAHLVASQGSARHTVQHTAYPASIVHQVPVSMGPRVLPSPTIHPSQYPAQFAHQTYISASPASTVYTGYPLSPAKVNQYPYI
PAK4 (human), sequence (O96013 whole entry, looked up): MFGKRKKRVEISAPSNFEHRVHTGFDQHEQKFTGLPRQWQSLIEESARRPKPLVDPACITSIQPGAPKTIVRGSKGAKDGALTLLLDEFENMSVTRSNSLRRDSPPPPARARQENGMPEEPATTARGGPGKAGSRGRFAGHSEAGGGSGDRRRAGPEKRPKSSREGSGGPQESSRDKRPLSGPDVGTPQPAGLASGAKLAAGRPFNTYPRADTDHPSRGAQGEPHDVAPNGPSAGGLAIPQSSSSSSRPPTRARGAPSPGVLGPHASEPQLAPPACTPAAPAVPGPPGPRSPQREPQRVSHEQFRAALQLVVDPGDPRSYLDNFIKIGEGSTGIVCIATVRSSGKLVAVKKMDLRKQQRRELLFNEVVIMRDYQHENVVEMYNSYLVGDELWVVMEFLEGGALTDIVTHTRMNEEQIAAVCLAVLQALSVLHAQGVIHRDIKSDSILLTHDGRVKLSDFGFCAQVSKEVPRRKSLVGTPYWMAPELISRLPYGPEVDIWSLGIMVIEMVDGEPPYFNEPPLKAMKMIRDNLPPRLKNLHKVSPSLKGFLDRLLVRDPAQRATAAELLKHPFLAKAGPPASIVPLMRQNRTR
MAPK12 (human), sequence (P53778 whole entry, looked up): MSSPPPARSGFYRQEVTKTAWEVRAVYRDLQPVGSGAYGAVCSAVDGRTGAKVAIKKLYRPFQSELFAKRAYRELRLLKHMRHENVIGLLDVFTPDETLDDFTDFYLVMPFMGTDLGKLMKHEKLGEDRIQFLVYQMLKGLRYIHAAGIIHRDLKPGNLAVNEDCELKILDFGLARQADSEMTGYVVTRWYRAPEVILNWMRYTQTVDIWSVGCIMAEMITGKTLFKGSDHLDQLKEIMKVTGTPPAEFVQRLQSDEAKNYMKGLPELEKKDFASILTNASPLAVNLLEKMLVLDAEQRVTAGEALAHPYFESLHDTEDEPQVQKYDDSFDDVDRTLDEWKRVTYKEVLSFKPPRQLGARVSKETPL
IKBKE (human), sequence (Q14164 whole entry, looked up): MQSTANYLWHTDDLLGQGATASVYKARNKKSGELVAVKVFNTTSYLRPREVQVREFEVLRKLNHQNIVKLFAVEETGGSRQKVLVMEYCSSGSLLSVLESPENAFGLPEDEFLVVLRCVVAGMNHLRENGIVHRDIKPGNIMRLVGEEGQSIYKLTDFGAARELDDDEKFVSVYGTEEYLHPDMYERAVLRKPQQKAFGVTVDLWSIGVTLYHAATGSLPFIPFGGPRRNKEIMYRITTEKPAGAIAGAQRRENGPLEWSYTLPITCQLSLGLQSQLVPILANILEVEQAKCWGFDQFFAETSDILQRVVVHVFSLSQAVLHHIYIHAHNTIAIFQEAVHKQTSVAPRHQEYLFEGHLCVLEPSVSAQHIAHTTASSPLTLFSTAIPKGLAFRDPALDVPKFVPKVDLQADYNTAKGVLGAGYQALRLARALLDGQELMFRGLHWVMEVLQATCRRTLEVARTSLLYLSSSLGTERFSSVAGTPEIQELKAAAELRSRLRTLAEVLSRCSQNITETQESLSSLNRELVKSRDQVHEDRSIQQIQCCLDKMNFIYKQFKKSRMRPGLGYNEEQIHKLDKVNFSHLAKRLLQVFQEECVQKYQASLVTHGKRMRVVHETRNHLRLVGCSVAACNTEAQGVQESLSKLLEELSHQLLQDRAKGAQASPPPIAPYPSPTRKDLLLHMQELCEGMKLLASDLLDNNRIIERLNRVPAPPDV
RPS6KA1 KD1 KD2 (human), sequence (Q15418 whole entry, looked up): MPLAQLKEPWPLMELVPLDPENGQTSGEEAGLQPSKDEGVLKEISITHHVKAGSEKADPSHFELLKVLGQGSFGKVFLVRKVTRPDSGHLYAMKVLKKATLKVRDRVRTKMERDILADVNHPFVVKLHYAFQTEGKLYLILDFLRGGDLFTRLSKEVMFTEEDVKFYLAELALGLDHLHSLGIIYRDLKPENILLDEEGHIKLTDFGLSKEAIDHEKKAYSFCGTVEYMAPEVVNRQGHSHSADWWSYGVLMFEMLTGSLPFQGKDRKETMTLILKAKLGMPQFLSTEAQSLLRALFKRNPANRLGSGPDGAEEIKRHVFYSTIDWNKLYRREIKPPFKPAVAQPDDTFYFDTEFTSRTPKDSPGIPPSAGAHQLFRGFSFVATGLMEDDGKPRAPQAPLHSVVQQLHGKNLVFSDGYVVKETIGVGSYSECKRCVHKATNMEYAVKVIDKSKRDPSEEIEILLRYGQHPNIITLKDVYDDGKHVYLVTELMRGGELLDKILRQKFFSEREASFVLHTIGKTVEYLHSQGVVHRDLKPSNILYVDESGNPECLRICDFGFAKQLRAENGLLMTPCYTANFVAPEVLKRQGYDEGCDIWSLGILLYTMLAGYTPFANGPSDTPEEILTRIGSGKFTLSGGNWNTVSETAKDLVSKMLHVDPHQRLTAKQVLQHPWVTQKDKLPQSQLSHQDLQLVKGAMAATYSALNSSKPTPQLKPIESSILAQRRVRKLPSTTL

`Cn1c(=O)c2c(ncn2C)n(C)c1=O` was tested, and the residual activity (MAPK8 (human); compound 0.1 µM) was 92%, the residual activity (MAPK8 (human); compound 1.0 µM) was 78% and the residual activity (PAK7 (human); compound 0.1 µM) was 102%. The residual activity (PAK7 (human); compound 1.0 µM) was 114%, the residual activity (PRKAA1 or PRKAA2 (rat); compound 0.1 µM) was 90% and the residual activity (PRKAA1 or PRKAA2 (rat); compound 1.0 µM) was 98%. It also gave a residual activity (PRKCA (human); compound 0.1 µM) of 101%, a residual activity (PRKCA (human); compound 1.0 µM) of 100% and a residual activity (NEK2 (human); compound 0.1 µM) of 107%. For the same compound, the residual activity (NEK2 (human); compound 1.0 µM) was 102%, the residual activity (DYRK2 (human); compound 0.1 µM) was 81% and the residual activity (DYRK2 (human); compound 1.0 µM) was 87%. The residual activity ([1]; compound 0.1 µM) was 102%, the residual activity (PRKACA (human); compound 0.1 µM) was 103% and the residual activity (PRKACA (human); compound 1.0 µM) was 96%. The residual activity (BRSK2 (human); compound 0.1 µM) was 99%, the residual activity (BRSK2 (human); compound 1.0 µM) was 97% and the residual activity (MST4 (human); compound 0.1 µM) was 96%. For the same compound, the residual activity (MST4 (human); compound 1.0 µM) was 97%, the residual activity (IKBKE (human); compound 0.1 µM) was 87% and the residual activity (IKBKE (human); compound 1.0 µM) was 90%. The residual activity (CaMK1 (human); compound 0.1 µM) was 90%, the residual activity (CaMK1 (human); compound 1.0 µM) was 101% and the residual activity (HIPK2 (human); compound 0.1 µM) was 103%. It also gave a residual activity (HIPK2 (human); compound 1.0 µM) of 112%, a residual activity (RPS6KA1 KD1 KD2 (human); compound 0.1 µM) of 74% and a residual activity (RPS6KA1 KD1 KD2 (human); compound 1.0 µM) of 78%. For the same compound, the residual activity ([2]; compound 0.1 µM) was 90%, the residual activity ([2]; compound 1.0 µM) was 101% and the residual activity (MKNK1 (human); compound 0.1 µM) was 110%. It also gave a residual activity (MKNK1 (human); compound 1.0 µM) of 99%, a residual activity (CHEK2 (human); compound 0.1 µM) of 86% and a residual activity (CHEK2 (human); compound 1.0 µM) of 83%. For the same compound, the residual activity (MAPK3 (human); compound 0.1 µM) was 99%, the residual activity (MAPK3 (human); compound 1.0 µM) was 113% and the residual activity (EPHB3 (human); compound 0.1 µM) was 92%. The residual activity (EPHB3 (human); compound 1.0 µM) was 97%, the residual activity (PLK1 (human); compound 0.1 µM) was 92% and the residual activity (PLK1 (human); compound 1.0 µM) was 95%. It also gave a residual activity (PAK4 (human); compound 0.1 µM) of 99%, a residual activity (PAK4 (human); compound 1.0 µM) of 100% and a residual activity (MAPK12 (human); compound 0.1 µM) of 97%. It also gave a residual activity (MAPK12 (human); compound 1.0 µM) of 110%, a residual activity (SYK (human); compound 0.1 µM) of 92% and a residual activity (SYK (human); compound 1.0 µM) of 86%. It also gave a residual activity (DYRK1A (human); compound 0.1 µM) of 92%, a residual activity (DYRK1A (human); compound 1.0 µM) of 96% and a residual activity (MAPK13 (human); compound 0.1 µM) of 88%. For the same compound, the residual activity (MAPK13 (human); compound 1.0 µM) was 88%, the residual activity (MAPK1 (human); compound 0.1 µM) was 96% and the residual activity (MAPK1 (human); compound 1.0 µM) was 101%.

`CCc1cncnc1N1CCN(Cc2nc3cc(C(F)(F)F)ccc3[nH]2)CC1` gave a residual activity (MAPK8 (human); compound 1.0 µM) of 107%, a residual activity (MAPK8 (human); compound 10.0 µM) of 95% and a residual activity (PAK7 (human); compound 1.0 µM) of 88%. It also gave a residual activity (PAK7 (human); compound 10.0 µM) of 87%, a residual activity (PRKAA1 or PRKAA2 (rat); compound 0.1 µM) of 100% and a residual activity (PRKAA1 or PRKAA2 (rat); compound 1.0 µM) of 88%. It also gave a residual activity (PRKAA1 or PRKAA2 (rat); compound 10.0 µM) of 46%, a residual activity (PRKCA (human); compound 0.1 µM) of 119% and a residual activity (PRKCA (human); compound 1.0 µM) of 106%. For the same compound, the residual activity (PRKCA (human); compound 10.0 µM) was 62%, the residual activity (NEK2 (human); compound 0.1 µM) was 95% and the residual activity (NEK2 (human); compound 1.0 µM) was 94%. For the same compound, the residual activity (NEK2 (human); compound 10.0 µM) was 91%, the residual activity (DYRK2 (human); compound 0.1 µM) was 97% and the residual activity (DYRK2 (human); compound 1.0 µM) was 104%. It also gave a residual activity (DYRK2 (human); compound 10.0 µM) of 101%, a residual activity ([1]; compound 0.1 µM) of 106% and a residual activity ([1]; compound 1.0 µM) of 74%. For the same compound, the residual activity ([1]; compound 10.0 µM) was 65%, the residual activity (PRKACA (human); compound 0.1 µM) was 84% and the residual activity (PRKACA (human); compound 1.0 µM) was 83%. It also gave a residual activity (PRKACA (human); compound 10.0 µM) of 34%, a residual activity (BRSK2 (human); compound 0.1 µM) of 88% and a residual activity (BRSK2 (human); compound 1.0 µM) of 84%. For the same compound, the residual activity (BRSK2 (human); compound 10.0 µM) was 83%, the residual activity (MST4 (human); compound 0.1 µM) was 87% and the residual activity (MST4 (human); compound 1.0 µM) was 77%. For the same compound, the residual activity (MST4 (human); compound 10.0 µM) was 46%, the residual activity (IKBKE (human); compound 0.1 µM) was 103% and the residual activity (IKBKE (human); compound 1.0 µM) was 99%. For the same compound, the residual activity (IKBKE (human); compound 10.0 µM) was 96%, the residual activity (CaMK1 (human); compound 0.1 µM) was 106% and the residual activity (CaMK1 (human); compound 10.0 µM) was 78%. The residual activity (HIPK2 (human); compound 0.1 µM) was 108%, the residual activity (HIPK2 (human); compound 1.0 µM) was 86% and the residual activity (HIPK2 (human); compound 10.0 µM) was 88%. The residual activity (RPS6KA1 KD1 KD2 (human); compound 0.1 µM) was 46%, the residual activity (RPS6KA1 KD1 KD2 (human); compound 1.0 µM) was 33% and the residual activity (RPS6KA1 KD1 KD2 (human); compound 10.0 µM) was 0%. It also gave a residual activity ([2]; compound 0.1 µM) of 87%, a residual activity ([2]; compound 1.0 µM) of 69% and a residual activity ([2]; compound 10.0 µM) of 52%. The residual activity (MKNK1 (human); compound 0.1 µM) was 101%, the residual activity (MKNK1 (human); compound 1.0 µM) was 91% and the residual activity (MKNK1 (human); compound 10.0 µM) was 79%. The residual activity (CHEK2 (human); compound 0.1 µM) was 101%, the residual activity (CHEK2 (human); compound 1.0 µM) was 73% and the residual activity (CHEK2 (human); compound 10.0 µM) was 72%. The residual activity (MAPK3 (human); compound 0.1 µM) was 93%, the residual activity (MAPK3 (human); compound 1.0 µM) was 85% and the residual activity (EPHB3 (human); compound 0.1 µM) was 132%. It also gave a residual activity (EPHB3 (human); compound 1.0 µM) of 139%, a residual activity (EPHB3 (human); compound 10.0 µM) of 101% and a residual activity (PLK1 (human); compound 0.1 µM) of 98%. The residual activity (PLK1 (human); compound 1.0 µM) was 87%, the residual activity (PLK1 (human); compound 10.0 µM) was 88% and the residual activity (PAK4 (human); compound 0.1 µM) was 93%. The residual activity (PAK4 (human); compound 1.0 µM) was 88%, the residual activity (PAK4 (human); compound 10.0 µM) was 88% and the residual activity (MAPK12 (human); compound 0.1 µM) was 107%. It also gave a residual activity (MAPK12 (human); compound 1.0 µM) of 102%, a residual activity (MAPK12 (human); compound 10.0 µM) of 103% and a residual activity (SYK (human); compound 0.1 µM) of 121%. For the same compound, the residual activity (SYK (human); compound 1.0 µM) was 100%, the residual activity (SYK (human); compound 10.0 µM) was 91% and the residual activity (DYRK1A (human); compound 0.1 µM) was 99%. It also gave a residual activity (DYRK1A (human); compound 1.0 µM) of 94%, a residual activity (DYRK1A (human); compound 10.0 µM) of 85% and a residual activity (MAPK13 (human); compound 0.1 µM) of 89%. For the same compound, the residual activity (MAPK13 (human); compound 1.0 µM) was 82%, the residual activity (MAPK13 (human); compound 10.0 µM) was 91% and the residual activity (MAPK1 (human); compound 0.1 µM) was 93%. The residual activity (MAPK1 (human); compound 1.0 µM) was 85% and the residual activity (MAPK1 (human); compound 10.0 µM) was 86%.
